Paper PMC8596838, “Xylose‐Configured Cyclophellitols as Selective Inhibitors for Glucocerebrosidase” (Chembiochem, 2021)
Like-named read-outs stand apart in the source and are kept apart here.

Experiments:
Type in all cases: biochemical
[1] = biological target: T1, rhGBA (recombinant human GBA, Imiglucerase) (Homo sapiens, UniProt P04062, R534H); experiment: Fluorogenic substrate (4-MU-β-D-glucoside) enzymatic assay, rhGBA; conditions: for inhibitory activity against GBA: in vitro, 30 min
T1 construct: purchased Sanofi Genzyme (Cambridge, MA, USA)
T1 sequence (P04062 40-536 R534H): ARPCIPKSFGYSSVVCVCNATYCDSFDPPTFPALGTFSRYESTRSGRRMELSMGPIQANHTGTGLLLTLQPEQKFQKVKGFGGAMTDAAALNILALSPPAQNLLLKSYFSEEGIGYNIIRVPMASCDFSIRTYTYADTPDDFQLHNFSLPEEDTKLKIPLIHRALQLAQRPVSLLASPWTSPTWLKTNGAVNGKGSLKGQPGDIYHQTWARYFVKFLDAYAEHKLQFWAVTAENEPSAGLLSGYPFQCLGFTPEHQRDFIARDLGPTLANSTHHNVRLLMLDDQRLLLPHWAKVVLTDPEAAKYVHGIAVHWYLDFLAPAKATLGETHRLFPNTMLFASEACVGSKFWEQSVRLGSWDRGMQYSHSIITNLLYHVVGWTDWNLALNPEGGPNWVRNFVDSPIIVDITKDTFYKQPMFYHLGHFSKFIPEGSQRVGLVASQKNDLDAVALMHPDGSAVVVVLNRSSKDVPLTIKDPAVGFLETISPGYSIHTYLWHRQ
Description: (§1) Using fluorogenic substrate‐based assays, we determined apparent IC50 values at 30 min incubation time of the xylo‐cyclophellitols in rhGBA, and GBA2 and GBA3 lysates of cells expressing only each of the enzymes specifically.
(§2) Enzyme activity assays: All assays were performed with lysates of HEK293T cells or zebrafish larvae in 96‐well plates at 37 °C. Samples were diluted with McIlvaine buffer (150 mM citric acid‐Na2HPO4) to a final volume of 25 μL, at pH appropriate for each enzyme. Assays were performed by incubating the samples with 100 μL 4‐methylumbelliferyl‐β‐D‐glucoside substrates diluted in McIlvaine buffer (with 0.1 % (w/v) bovine serum albumin (BSA)) for a period of 30 min or 3 h. The substrate mixtures used for each enzyme were as follows: GBA, 3.75 mM 4‐MU‐β‐D‐glucopyranoside (Glycosynth, Warrington Cheshire, UK) at pH 5.2, supplemented with 0.2 % (w/v) sodium taurocholate, 0.1 % (v/v) Triton X‐100, 0.1 % (w/v) bovine serum albumin (BSA); GBA2, 3.75 mM 4 MU‐β‐D‐glucopyranoside at pH 5.8; GBA3, 3.75 mM 4‐MU‐β‐D‐glucopyranoside at pH 6.0. After stopping the enzyme reaction with 200 μL 1 M NaOH‐glycine (pH 10.3), 4‐methylumbelliferone fluorescence was measured with a fluorimeter LS55 (Perkin Elmer, Waltham, MA, USA) with λEX 366 nm and λEM 445 nm. Enzyme activities were determined by subtraction of background (measured for incubations without enzyme). IC50 values were determined exactly as earlier described.[36]
(§3) The IC50 values were determined using a fluorogenic enzymatic assay. For GBA, 3.16 ng (53 fmol) of rhGBA, (recombinant human GBA, Imiglucerase) obtained from Sanofi Genzyme (Cambridge, MA, USA), was prepared in 12.5 μL McIlvaine buffer (150 mM, pH 5.2) supplemented with 0.1 % (v/v) Triton X‐100, and 0.2 % (w/v) sodium taurocholate, 0.1 % (w/v) bovine serum albumin (BSA). The enzyme was incubated with 12.5 μL of inhibitors diluted in McIlvaine buffer (150 mM, pH 5.2) at 37 °C for 30 min. In the case of GBA2 or GBA3, lysates of GBA/GBA2 KO HEK293T cells overexpressing GBA2 or GBA3, respectively where used. The enzymatic activity of GBA, GBA2 and GBA3 were measured with 4MU‐β‐D‐glucoside substrate as described above.

GBA2 = biological target: T2, GBA2 (Homo sapiens, UniProt Q9HCG7); experiment: Fluorogenic substrate enzymatic assay, lysate of GBA/GBA2 KO HEK293T cells overexpressing GBA2; conditions: for (Ratio) GBA2/GBA / GBA2/GBA ratio, 3 h: IC50 ratio; for (Ratio) GBA2/GBA / inhibitory activity against GBA2: in vitro, 30 min; for IC50: n=3
T2 construct: expressed in transfected cells; host or cells: HEK293T (GBA/GBA2 KO background for the fluorogenic assay; endogenous-GBA background with GBA2 and GBA3 overexpressed for ABPP and intact-cell assays)
T2 sequence (Q9HCG7 1-927): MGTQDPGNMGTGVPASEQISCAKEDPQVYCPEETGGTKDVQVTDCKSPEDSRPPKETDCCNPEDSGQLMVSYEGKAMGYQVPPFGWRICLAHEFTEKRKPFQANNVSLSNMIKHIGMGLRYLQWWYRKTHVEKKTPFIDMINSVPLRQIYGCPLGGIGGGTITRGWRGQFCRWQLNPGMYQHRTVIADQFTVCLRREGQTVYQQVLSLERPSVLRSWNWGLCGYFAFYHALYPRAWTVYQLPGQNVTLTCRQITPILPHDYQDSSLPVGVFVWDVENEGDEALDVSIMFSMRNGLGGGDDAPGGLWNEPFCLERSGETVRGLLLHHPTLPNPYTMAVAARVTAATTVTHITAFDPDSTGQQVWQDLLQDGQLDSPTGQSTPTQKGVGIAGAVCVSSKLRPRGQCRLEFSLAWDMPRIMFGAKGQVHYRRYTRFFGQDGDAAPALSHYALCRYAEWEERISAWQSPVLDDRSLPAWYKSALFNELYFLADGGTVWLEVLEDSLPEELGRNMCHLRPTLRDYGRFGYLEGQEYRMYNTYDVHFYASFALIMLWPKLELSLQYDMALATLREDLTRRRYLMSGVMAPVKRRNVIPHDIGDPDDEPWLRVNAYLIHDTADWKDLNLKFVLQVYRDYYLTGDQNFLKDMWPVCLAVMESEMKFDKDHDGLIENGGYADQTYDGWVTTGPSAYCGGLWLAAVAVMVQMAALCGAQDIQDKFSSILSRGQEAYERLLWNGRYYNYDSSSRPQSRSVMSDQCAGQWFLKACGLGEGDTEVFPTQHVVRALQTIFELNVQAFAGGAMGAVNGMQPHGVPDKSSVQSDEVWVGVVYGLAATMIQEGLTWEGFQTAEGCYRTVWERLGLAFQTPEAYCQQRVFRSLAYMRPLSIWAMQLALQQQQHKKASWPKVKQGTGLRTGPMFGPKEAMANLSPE
Description: as §2
as §3, with “The enzyme was incubated with 12.5 μL of inhibitors diluted in McIlvaine buffer (150 mM, pH 5.2) at 37 °C for 30 min.” left out

GBA3 = biological target: T3, GBA3 (Homo sapiens, UniProt Q9H227); experiment: Fluorogenic substrate enzymatic assay, lysate of GBA/GBA2 KO HEK293T cells overexpressing GBA3; conditions: for (Ratio) GBA3/GBA: IC50 ratio; for (Ratio) GBA3/GBA / inhibitory activity against GBA3: in vitro, 30 min; for IC50: incubation time 30 min, enzymatic assay, ±SD, n=3, read-out: In vitro apparent IC50 GBA3
T3 construct: expressed in transfected cells; host or cells: HEK293T (GBA/GBA2 KO background for the fluorogenic assay; endogenous-GBA background with GBA2 and GBA3 overexpressed for ABPP and intact-cell assays)
T3 sequence (Q9H227 1-469): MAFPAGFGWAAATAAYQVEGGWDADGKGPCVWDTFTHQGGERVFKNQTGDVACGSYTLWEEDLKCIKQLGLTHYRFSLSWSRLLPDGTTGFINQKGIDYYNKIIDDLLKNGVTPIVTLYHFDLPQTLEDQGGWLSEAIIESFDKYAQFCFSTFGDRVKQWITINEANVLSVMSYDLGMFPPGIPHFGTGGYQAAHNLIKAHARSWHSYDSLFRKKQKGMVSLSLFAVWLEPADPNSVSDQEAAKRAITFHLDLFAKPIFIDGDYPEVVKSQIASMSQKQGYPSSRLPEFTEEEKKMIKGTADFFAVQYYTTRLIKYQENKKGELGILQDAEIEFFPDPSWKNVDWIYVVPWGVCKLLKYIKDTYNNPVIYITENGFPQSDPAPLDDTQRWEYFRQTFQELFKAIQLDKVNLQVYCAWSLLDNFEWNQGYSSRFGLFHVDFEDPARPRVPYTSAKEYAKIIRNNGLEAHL
Description: as §1, §2, §3

[2] = biological target: T1, rhGBA (recombinant human GBA, Imiglucerase); experiment: Fluorogenic substrate (4-MU-β-D-glucoside) enzymatic assay, rhGBA
[3] = incubation time 30 min, enzymatic assay, ±SD, n=3, read-out: In vitro apparent IC50 rhGBA
[4] = incubation time 30 min, enzymatic assay, ±SD, read-out: In vitro apparent IC50 GBA2
[5] = enzymatic assay performed for 3 h, read-out: In vitro apparent IC50 GBA2, 3 h

Row | SMILES | IC50 [1, 3] | (Ratio) GBA2/GBA (GBA2) | IC50 (GBA2; [4]) | (Ratio) GBA3/GBA (GBA3) | IC50 (GBA3) | inhibitory activity against GBA [1] | inhibitory activity against GBA2 (GBA2) | inhibitory activity against GBA3 (GBA3) | IC50 ([2]; enzymatic assay performed for 3 h, n=3, read-out: In vitro apparent IC50 rhGBA, 3 h) | GBA2/GBA ratio, 3 h (GBA2; in vitro 3 h) | IC50 (GBA2; [5]) | IC50 [1] | increase in inhibitory activity towards GBA of aziridines relative to epoxide analogues ([2]; in vitro 3 h) | increase in inhibitory activity towards GBA2 of aziridines relative to epoxide analogues (GBA2; in vitro 3 h)
1 | O=C(CCCCC1SCC2NC(=O)NC21)NCc1cn(CCCCCCCCN2C3CC(O)C(O)C(O)C32)nn1 (centres unmarked) [ABP 7] | 164 ± 22.1 nM | 295 | 48300 ± 9010 nM | 155 | 25300 ± 5010 nM | – | – | – | – | – | – | – | – | –
2 | CC1=CC(C)=[N+]2C1=C(CCCCc1cn(CCCCCCCCN3[C@H]4[C@H](O)[C@@H](O)[C@H](O)C[C@H]43)nn1)c1c(C)cc(C)n1[B-]2(F)F (some centres unmarked) [ABP 8] | 2.7 ± 0.45 nM | 23 | 61.2 ± 12 nM | 193 | 522 ± 209 nM | – | – | – | – | – | – | – | – | –
3 | CN1/C(=C/C=C/C=C/C2=[N+](CCCCCC(=O)NCc3cn(CCCCCCCCN4[C@@H]5[C@H](CO)[C@@H](O)[C@H](O)[C@@H](O)[C@@H]54)nn3)c3ccccc3C2(C)C)C(C)(C)c2ccccc21 (some centres unmarked) [ABP 10, reference compound] | 8.1 ± 1.94 nM | 2.6 | 21.5 ± 0.42 nM | 1 | 8.54 ± 1.18 nM | – | – | – | – | – | – | – | – | –
4 | O[C@@H]1[C@@H](O)[C@H](O)C[C@@H]2O[C@H]12 [compound 11, α‐D‐xylose‐configured cyclophellitol] | – | – | – | – | – | no or little inhibitory activity | no or little inhibitory activity | no or little inhibitory activity | – | – | – | – | – | –
5 | O[C@@H]1[C@@H](O)[C@H](O)C[C@@H]2N[C@H]12 [compound 12] | – | – | 55800 ± 2340 nM | – | – | no or little inhibitory activity | no or little inhibitory activity | no or little inhibitory activity | – | – | – | – | – | –
6 | O[C@H]1[C@H](O)[C@@H](O)[C@@H]2O[C@@H]2[C@@H]1O [compound 13, Conduritol B‐epoxide, reference compound] | 34900 ± 1670 nM | >14 | > 500000 nM | >14 | > 500000 nM | – | – | – | 2630 ± 340 nM | 40 | 105000 ± 5850 nM | – | – | –
7 | O[C@H]1[C@H](O)[C@@H](O)[C@@H]2N[C@@H]2[C@@H]1O [compound 14, conduritol B‐aziridine, reference compound] | – | – | – | – | – | – | – | – | – | 6.6 | 10800 ± 3300 nM | 1630 ± 70 nM | less than two‐fold increase | 10–20 fold
